Inconclusive results and toxic doses are left out. How the source made its calls: active means survival T/C of 150% or more; inactive means T/C below 125% in these data.
Tested on: CD2F1 mice, L1210 leukemia ip, survival T/C
Experiment: NCI In Vivo Anticancer Drug Screen. Data for tumor model L1210 Leukemia (intraperitoneal) in CD2F1 (CDF1) mice
Conditions: higher = longer survival
In short: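 Compound-dosed mice with transplantable tumor versus matched vehicle controls; endpoint ratio T/C reported.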

[1] = endpoint: mean survival time, dose: 1.0 mg/kg/injection, schedule: Q01DX009 (ip), vehicle: saline
[2] = endpoint: mean survival time, dose: 2.0 mg/kg/injection, schedule: Q01DX009 (ip), vehicle: saline
[3] = endpoint: mean survival time, dose: 4.0 mg/kg/injection, schedule: Q01DX009 (ip), vehicle: saline
[4] = endpoint: mean survival time, dose: 50.0 mg/kg/injection, schedule: Q01DX009 (ip), vehicle: saline with Tween-80
[5] = endpoint: mean survival time, dose: 100.0 mg/kg/injection, schedule: Q04DX003 (ip), vehicle: saline with Tween-80
[6] = endpoint: mean survival time, dose: 100.0 mg/kg/injection, schedule: Q01DX009 (ip), vehicle: saline with Tween-80
[7] = endpoint: mean survival time, dose: 200.0 mg/kg/injection, schedule: Q01DX009 (ip), vehicle: saline with Tween-80
[8] = endpoint: mean survival time, dose: 200.0 mg/kg/injection, schedule: Q04DX003 (ip), vehicle: saline with Tween-80
[9] = endpoint: mean survival time, dose: 100.0 mg/kg/injection, schedule: Q01DX009 (ip), vehicle: other
[10] = endpoint: mean survival time, dose: 200.0 mg/kg/injection, schedule: Q01DX009 (ip), vehicle: other
[11] = endpoint: mean survival time, dose: 400.0 mg/kg/injection, schedule: Q01DX009 (ip), vehicle: saline with Tween-80

Measured: T/C

CN1C(=O)[N+](C)(C)N=C1[O-]
inactive: endpoint: mean survival time, dose: 100.0 mg/kg/injection, schedule: Q04DX003 (ip), vehicle: saline 94 % of control | endpoint: mean survival time, dose: 200.0 mg/kg/injection, schedule: Q04DX003 (ip), vehicle: saline 97 % of control | endpoint: mean survival time, dose: 400.0 mg/kg/injection, schedule: Q04DX003 (ip), vehicle: saline 95 % of control

O=C1C=Cc2ccccc2C1=O
inactive: endpoint: mean survival time, dose: 0.63 mg/kg/injection, schedule: Q01DX009 (ip), vehicle: saline 98 % of control | [1] 105 % of control | endpoint: mean survival time, dose: 1.25 mg/kg/injection, schedule: Q01DX009 (ip), vehicle: saline 104 % of control | [2] 98 % of control | endpoint: mean survival time, dose: 2.5 mg/kg/injection, schedule: Q01DX009 (ip), vehicle: saline with Tween-80 110 % of control | endpoint: mean survival time, dose: 2.5 mg/kg/injection, schedule: Q01DX009 (ip), vehicle: saline 98 % of control | [3] 88 % of control

CC1(C)C(O)C(C)(C)C1O (stereo not drawn)
inactive: endpoint: mean survival time, dose: 25.0 mg/kg/injection, schedule: Q01DX009 (ip), vehicle: saline with Tween-80 93 % of control | [4] 98 % of control | [5] 97 % of control

N#CS.N=C=S.N=C=S.[Co+3].[NH-]CC[NH-].[NH-]CC[NH-]
inactive: endpoint: mean survival time, dose: 100.0 mg/kg/injection, schedule: Q04DX002 (ip), vehicle: saline 111 % of control | endpoint: mean survival time, dose: 200.0 mg/kg/injection, schedule: Q04DX002 (ip), vehicle: saline 104 % of control

OC1CC2CC1C1C=CCC21 (stereo not drawn)
inactive: [4] 95 % of control | [6] 98 % of control | [5] 93 % of control | [7] 93 % of control | [8] 93 % of control

O=C(c1cccnc1)C1Cc2ccccc2C1=O (stereo not drawn)
inactive: endpoint: mean survival time, dose: 100.0 mg/kg/injection, schedule: Q01DX009 (ip), vehicle: saline sonified 102 % of control | endpoint: mean survival time, dose: 200.0 mg/kg/injection, schedule: Q01DX009 (ip), vehicle: saline sonified 96 % of control | endpoint: mean survival time, dose: 400.0 mg/kg/injection, schedule: Q01DX009 (ip), vehicle: saline sonified 94 % of control

O=C1C2C3C=CC(C3)C2C(=NS(=O)(=O)c2ccccc2)C2C3C=CC(C3)C12 (stereo not drawn)
inactive: endpoint: mean survival time, dose: 100.0 mg/kg/injection, schedule: Q04DX003 (ip), vehicle: Klucel (hydroxypropylcellulose) (HPC) 91 % of control | endpoint: mean survival time, dose: 200.0 mg/kg/injection, schedule: Q04DX003 (ip), vehicle: Klucel (hydroxypropylcellulose) (HPC) 93 % of control | endpoint: mean survival time, dose: 400.0 mg/kg/injection, schedule: Q04DX003 (ip), vehicle: Klucel (hydroxypropylcellulose) (HPC) 91 % of control

Cc1c2c(O)c(O)c(O)cc2c[n+]2ccccc12
inactive: endpoint: mean survival time, dose: 50.0 mg/kg/injection, schedule: Q01DX009 (ip), vehicle: saline 101 % of control

Cc1cc(C)cc(NCCC#N)c1
inactive: [9] 98 % of control | endpoint: mean survival time, dose: 100.0 mg/kg/injection, schedule: Q04DX003 (ip), vehicle: other 106 % of control | [10] 98 % of control | endpoint: mean survival time, dose: 200.0 mg/kg/injection, schedule: Q04DX003 (ip), vehicle: other 100 % of control | endpoint: mean survival time, dose: 400.0 mg/kg/injection, schedule: Q01DX009 (ip), vehicle: other 98 % of control | endpoint: mean survival time, dose: 400.0 mg/kg/injection, schedule: Q04DX003 (ip), vehicle: other 98 % of control

C=CC1CC2C=CC1C2 (stereo not drawn) (tested in a mixture with another compound)
inactive: endpoint: mean survival time, dose: 80.5 mg/kg/injection, schedule: Q01DX009 (ip), vehicle: saline with Tween-80 106 % of control | endpoint: mean survival time, dose: 161.0 mg/kg/injection, schedule: Q01DX009 (ip), vehicle: saline with Tween-80 90 % of control

COC1OC(COC(=O)c2ccccc2)C(N(C)C(C)=O)C1OC(=O)c1ccccc1 (stereo not drawn)
inactive: endpoint: mean survival time, dose: 75.0 mg/kg/injection, schedule: Q01DX001 (ip), vehicle: other 97 % of control | endpoint: mean survival time, dose: 150.0 mg/kg/injection, schedule: Q01DX001 (ip), vehicle: other 103 % of control | endpoint: mean survival time, dose: 300.0 mg/kg/injection, schedule: Q01DX001 (ip), vehicle: other 91 % of control

COc1cccc2c1[C@H]1CO[C@H]3C4C[C@H](C(=O)O)C([C@@H](C2)N13)N4C (stereo partly drawn)
inactive: endpoint: median survival time, dose: 0.31 mg/kg/injection, schedule: Q01DX005 (ip), vehicle: water 90 % of control | endpoint: median survival time, dose: 0.62 mg/kg/injection, schedule: Q01DX005 (ip), vehicle: water 101 % of control | endpoint: median survival time, dose: 1.25 mg/kg/injection, schedule: Q01DX005 (ip), vehicle: water 102 % of control | endpoint: median survival time, dose: 2.5 mg/kg/injection, schedule: Q01DX005 (ip), vehicle: water 112 % of control | endpoint: median survival time, dose: 5.0 mg/kg/injection, schedule: Q01DX005 (ip), vehicle: water 121 % of control

CN1C(=O)C=CC1=O
inactive: endpoint: mean survival time, dose: 0.5 mg/kg/injection, schedule: Q01DX009 (ip), vehicle: saline 101 % of control | [1] 95 % of control | [2] 93 % of control | [3] 95 % of control

COc1ccc(C(=O)NCCc2ccc(OC)c(OC)c2)cc1O
inactive: endpoint: mean survival time, dose: 12.5 mg/kg/injection, schedule: Q01DX009 (ip), vehicle: other 100 % of control | endpoint: mean survival time, dose: 25.0 mg/kg/injection, schedule: Q01DX009 (ip), vehicle: other 94 % of control | endpoint: mean survival time, dose: 50.0 mg/kg/injection, schedule: Q01DX009 (ip), vehicle: other 96 % of control | [9] 90 % of control | [10] 96 % of control

C=CCSc1ncnc2c1c1c(N)ncnc1n2C1OC(CO)C(O)C1O (stereo not drawn)
inactive: endpoint: mean survival time, dose: 6.25 mg/kg/injection, schedule: Q01DX005 (ip), vehicle: other 103 % of control | endpoint: mean survival time, dose: 12.5 mg/kg/injection, schedule: Q01DX005 (ip), vehicle: other 109 % of control | endpoint: mean survival time, dose: 25.0 mg/kg/injection, schedule: Q01DX005 (ip), vehicle: other 101 % of control | endpoint: mean survival time, dose: 50.0 mg/kg/injection, schedule: Q01DX005 (ip), vehicle: other 107 % of control | endpoint: mean survival time, dose: 100.0 mg/kg/injection, schedule: Q01DX005 (ip), vehicle: other 103 % of control | endpoint: mean survival time, dose: 200.0 mg/kg/injection, schedule: Q01DX005 (ip), vehicle: other 109 % of control

C/C=C/CC1CCCCC1C (stereo not drawn)
inactive: [4] 96 % of control | [6] 96 % of control | [7] 108 % of control

CC(C)NCCO
inactive: endpoint: mean survival time, dose: 75.0 mg/kg/injection, schedule: Q01DX001 (ip), vehicle: saline 98 % of control | endpoint: mean survival time, dose: 100.0 mg/kg/injection, schedule: Q01DX001 (ip), vehicle: saline 97 % of control | endpoint: mean survival time, dose: 150.0 mg/kg/injection, schedule: Q01DX001 (ip), vehicle: saline 100 % of control | endpoint: mean survival time, dose: 200.0 mg/kg/injection, schedule: Q01DX001 (ip), vehicle: saline 97 % of control

S=C([SH2+])[SH2+].S=C([SH2+])[SH2+].[Pt+2].c1ccc(C[P+](c2ccccc2)(c2ccccc2)c2ccccc2)cc1
inactive: endpoint: mean survival time, dose: 12.0 mg/kg/injection, schedule: Q04DX003 (ip), vehicle: saline 87 % of control | endpoint: mean survival time, dose: 25.0 mg/kg/injection, schedule: Q04DX003 (ip), vehicle: saline 100 % of control | endpoint: mean survival time, dose: 50.0 mg/kg/injection, schedule: Q04DX003 (ip), vehicle: saline 94 % of control

Cc1ccc(NC(=O)c2ccccc2Cl)cc1
inactive: [6] 95 % of control | [5] 95 % of control | [7] 92 % of control | [8] 96 % of control | [11] 94 % of control | endpoint: mean survival time, dose: 400.0 mg/kg/injection, schedule: Q04DX003 (ip), vehicle: saline with Tween-80 93 % of control

C=C(C)CON=C(c1ccccc1)c1ccccc1
inactive: [6] 98 % of control | [7] 96 % of control | [11] 98 % of control

C#CCOCCCC(=C)C
inactive: endpoint: mean survival time, dose: 100.0 mg/kg/injection, schedule: Q01DX001 (ip), vehicle: acetone 98 % of control
